The subject of test [1] is Mast/stem cell growth factor receptor Kit (Homo sapiens), P10721 [V559D,T670I]. Kind of test: (§1) Selectivity interaction (LanthaScreen Eu Kinase Binding Assay) EUB0001632a KIT. The following applies: at 10 µM.
Test [2] deals with Mast/stem cell growth factor receptor Kit (Homo sapiens), P10721 [D820E]. Described as §1. The following applies: at 10 µM.
Test [3] relates to Mast/stem cell growth factor receptor Kit (Homo sapiens), P10721 [D816V]. The test is described as §1. The following applies: at 10 µM.
Test [4] concerns Mast/stem cell growth factor receptor Kit (Homo sapiens), P10721 [Y823D]. Described as §1. Particulars: at 10 µM.
Test [5] deals with RAC-beta serine/threonine-protein kinase (Homo sapiens) (UniProt P31751). The test can be described thus: Selectivity interaction (ActivX KiNativ screen (ex vivo kinase selectivity in human PBMCs)) EUB0001619a AKT2. The class given is cell-based. Particulars: PBMC, at 1 µM.
In test [6] the target is Tyrosine-protein kinase Fyn (Homo sapiens) (UniProt P06241). Kind of test: Selectivity interaction (ActivX KiNativ screen (ex vivo kinase selectivity in human PBMCs)) EUB0001619a FYN. The class given is cell-based. The following applies: PBMC, at 1 µM.
Test [7] has as its target Ribosomal protein S6 kinase alpha-2 (Homo sapiens) (UniProt Q15349). The test can be described thus: Selectivity interaction (KinomeScan (DiscoverX)) EUB0000695a RPS6KA2. The following applies: at 100 nM.
Test [8] addresses Proto-oncogene tyrosine-protein kinase ROS (Homo sapiens) (UniProt P08922). Particulars: at 10 µM.
For test [9], the target named is 5'-AMP-activated protein kinase catalytic subunit alpha-1 (Homo sapiens, UniProt Q13131). The test can be described thus: Selectivity interaction (Kinase screening (Upstate/Millipore)) EUB0000604a PRKAA1.
Test [10] concerns the target T1, Dual specificity mitogen-activated protein kinase kinase 6 (Homo sapiens) (UniProt P52564).
T1 sequence (whole entry): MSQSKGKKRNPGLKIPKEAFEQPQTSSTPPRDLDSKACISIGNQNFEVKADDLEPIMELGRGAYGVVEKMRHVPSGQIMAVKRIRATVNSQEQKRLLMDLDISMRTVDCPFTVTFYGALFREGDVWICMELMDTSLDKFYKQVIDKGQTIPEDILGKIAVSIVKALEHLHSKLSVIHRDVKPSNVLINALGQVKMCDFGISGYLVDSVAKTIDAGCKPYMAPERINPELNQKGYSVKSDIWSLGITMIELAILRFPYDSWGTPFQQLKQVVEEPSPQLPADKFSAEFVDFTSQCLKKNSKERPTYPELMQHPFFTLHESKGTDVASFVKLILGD
Kind of test: Selectivity interaction (ActivX KiNativ screen (kinase selectivity in THP-1 cell lysates)) EUB0000639a MAP2K6. The class given is subcellular. Particulars: lysate, at 5 µM.

Test [11] deals with Leucine-rich repeat serine/threonine-protein kinase 2 (Homo sapiens, UniProt Q5S007). The test can be described thus: (§2) Selectivity interaction (Ambit KINOMEscan and KiNATiv profiling in Jurkat cells) EUB0000090b LRRK2. The test is classed as cell-based. Particulars: at 1 µM.
For test [12], the system named is Leucine-rich repeat serine/threonine-protein kinase 2 (Homo sapiens), Q5S007 [G2019S]. Described as §2. Particulars: at 1 µM. The class given is cell-based.
The target of test [13] is Casein kinase I isoform gamma-1 (Homo sapiens) (UniProt Q9HCP0). The test can be described thus: Selectivity interaction (Ambit KINOMEscan and KiNATiv profiling in Jurkat cells) EUB0000090b CSNK1G1. The test is classed as cell-based. Particulars: at 1 µM.
Test [14] addresses 3',5'-cyclic-AMP phosphodiesterase 4B (Homo sapiens) (UniProt Q07343). Kind of test: Selectivity interaction (Panel of kinases, GPCRs, ion channels and transporters (enzymatic assay)) EUB0000223bCl PDE4B.
Test [15] addresses T2, Dual specificity mitogen-activated protein kinase kinase 7 (Homo sapiens) (UniProt O14733).
T2 sequence (whole entry): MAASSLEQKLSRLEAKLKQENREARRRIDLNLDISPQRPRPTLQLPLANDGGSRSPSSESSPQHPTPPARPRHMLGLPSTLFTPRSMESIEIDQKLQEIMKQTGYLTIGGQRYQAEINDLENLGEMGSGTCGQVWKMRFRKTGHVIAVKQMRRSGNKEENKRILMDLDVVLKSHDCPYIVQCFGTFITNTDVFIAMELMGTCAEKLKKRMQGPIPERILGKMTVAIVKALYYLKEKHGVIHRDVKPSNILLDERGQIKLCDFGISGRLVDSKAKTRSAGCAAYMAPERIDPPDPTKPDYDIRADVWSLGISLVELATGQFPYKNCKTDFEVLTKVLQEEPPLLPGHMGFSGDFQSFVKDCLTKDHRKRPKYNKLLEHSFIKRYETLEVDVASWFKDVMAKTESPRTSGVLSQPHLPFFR
Kind of test: Selectivity interaction (Upstate Kinase Profiler service (Millipore)) EUB0000056c MAP2K7. Particulars: at 1 µM.

The target in test [16] is Tyrosine-protein kinase Yes (Homo sapiens) (UniProt P07947). Kind of test: Selectivity interaction (Upstate Kinase Profiler service (Millipore)) EUB0000056c YES1. Particulars: at 1 µM.
For test [17], the target named is Tyrosine-protein kinase Lck (Homo sapiens, UniProt P06239). Kind of test: Selectivity interaction (KinomeScan (DiscoverX)) EUB0001079a LCK. Particulars: at 1 µM.
Test [18] addresses T3, Serine/threonine-protein kinase DCLK3 (Homo sapiens) (UniProt Q9C098).
T3 sequence (whole entry): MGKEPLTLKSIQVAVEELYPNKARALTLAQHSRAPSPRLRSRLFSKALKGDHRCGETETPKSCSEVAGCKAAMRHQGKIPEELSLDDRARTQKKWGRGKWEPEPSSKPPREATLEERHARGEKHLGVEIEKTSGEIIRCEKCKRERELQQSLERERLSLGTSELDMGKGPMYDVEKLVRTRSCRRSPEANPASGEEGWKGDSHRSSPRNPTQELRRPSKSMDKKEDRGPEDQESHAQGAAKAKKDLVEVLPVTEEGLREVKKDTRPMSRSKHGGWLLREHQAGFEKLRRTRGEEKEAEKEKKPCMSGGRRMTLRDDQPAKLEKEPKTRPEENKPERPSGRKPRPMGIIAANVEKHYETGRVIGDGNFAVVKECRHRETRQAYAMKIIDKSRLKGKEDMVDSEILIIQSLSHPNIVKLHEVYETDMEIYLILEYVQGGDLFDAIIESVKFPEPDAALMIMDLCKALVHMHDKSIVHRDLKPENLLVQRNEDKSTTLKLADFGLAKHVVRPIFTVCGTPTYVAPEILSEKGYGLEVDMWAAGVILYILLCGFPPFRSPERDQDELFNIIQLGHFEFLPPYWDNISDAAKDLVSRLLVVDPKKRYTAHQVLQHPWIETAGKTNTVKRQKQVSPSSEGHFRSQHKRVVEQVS
The test can be described thus: Selectivity interaction (KinomeScan (DiscoverX)) EUB0000229b DCLK3. Particulars: at 10 µM.

Chain of Tyrosine-protein kinase Yes (Homo sapiens) (P07947 2-543 limits assumed): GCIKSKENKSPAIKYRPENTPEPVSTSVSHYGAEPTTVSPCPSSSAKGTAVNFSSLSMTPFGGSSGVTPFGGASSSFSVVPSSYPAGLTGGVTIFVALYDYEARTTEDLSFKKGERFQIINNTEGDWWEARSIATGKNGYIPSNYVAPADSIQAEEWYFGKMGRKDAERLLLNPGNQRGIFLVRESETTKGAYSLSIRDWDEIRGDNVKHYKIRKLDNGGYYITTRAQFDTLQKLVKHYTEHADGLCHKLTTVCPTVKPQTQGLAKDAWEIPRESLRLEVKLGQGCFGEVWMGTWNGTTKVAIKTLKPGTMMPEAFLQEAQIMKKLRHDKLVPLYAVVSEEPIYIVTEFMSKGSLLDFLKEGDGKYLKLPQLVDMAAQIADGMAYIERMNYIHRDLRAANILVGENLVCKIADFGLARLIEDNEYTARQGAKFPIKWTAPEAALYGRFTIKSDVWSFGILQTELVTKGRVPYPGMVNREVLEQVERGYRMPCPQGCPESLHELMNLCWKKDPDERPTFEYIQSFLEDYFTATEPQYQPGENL
Chain of Mast/stem cell growth factor receptor Kit (Homo sapiens), P10721 [V559D,T670I] (P10721 whole entry V559D/T670I): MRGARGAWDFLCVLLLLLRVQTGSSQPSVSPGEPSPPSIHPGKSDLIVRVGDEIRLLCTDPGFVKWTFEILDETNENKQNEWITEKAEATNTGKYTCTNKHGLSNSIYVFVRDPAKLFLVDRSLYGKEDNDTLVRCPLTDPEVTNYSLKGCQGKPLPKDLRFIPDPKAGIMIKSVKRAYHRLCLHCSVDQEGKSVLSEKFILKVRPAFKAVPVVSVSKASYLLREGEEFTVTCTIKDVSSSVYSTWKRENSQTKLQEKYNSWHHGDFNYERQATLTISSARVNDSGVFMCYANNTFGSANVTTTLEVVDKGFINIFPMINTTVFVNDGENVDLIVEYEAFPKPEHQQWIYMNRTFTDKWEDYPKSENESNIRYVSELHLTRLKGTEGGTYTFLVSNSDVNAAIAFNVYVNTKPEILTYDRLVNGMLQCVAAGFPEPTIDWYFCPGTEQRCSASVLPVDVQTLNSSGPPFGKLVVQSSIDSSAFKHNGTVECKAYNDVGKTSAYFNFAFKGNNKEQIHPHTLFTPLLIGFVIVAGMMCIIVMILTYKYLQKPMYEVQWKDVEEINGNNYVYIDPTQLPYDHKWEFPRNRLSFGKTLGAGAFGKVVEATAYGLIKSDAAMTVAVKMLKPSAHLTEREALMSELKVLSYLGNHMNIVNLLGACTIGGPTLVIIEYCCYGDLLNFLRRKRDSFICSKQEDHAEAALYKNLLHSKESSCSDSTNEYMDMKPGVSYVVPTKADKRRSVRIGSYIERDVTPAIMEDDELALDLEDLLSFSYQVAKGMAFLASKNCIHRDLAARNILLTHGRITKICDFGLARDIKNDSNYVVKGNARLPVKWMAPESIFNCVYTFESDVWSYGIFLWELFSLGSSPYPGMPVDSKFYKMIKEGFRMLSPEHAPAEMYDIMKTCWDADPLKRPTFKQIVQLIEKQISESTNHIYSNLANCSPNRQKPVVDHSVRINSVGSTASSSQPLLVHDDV
Chain of 3',5'-cyclic-AMP phosphodiesterase 4B (Homo sapiens) (Q07343 whole entry): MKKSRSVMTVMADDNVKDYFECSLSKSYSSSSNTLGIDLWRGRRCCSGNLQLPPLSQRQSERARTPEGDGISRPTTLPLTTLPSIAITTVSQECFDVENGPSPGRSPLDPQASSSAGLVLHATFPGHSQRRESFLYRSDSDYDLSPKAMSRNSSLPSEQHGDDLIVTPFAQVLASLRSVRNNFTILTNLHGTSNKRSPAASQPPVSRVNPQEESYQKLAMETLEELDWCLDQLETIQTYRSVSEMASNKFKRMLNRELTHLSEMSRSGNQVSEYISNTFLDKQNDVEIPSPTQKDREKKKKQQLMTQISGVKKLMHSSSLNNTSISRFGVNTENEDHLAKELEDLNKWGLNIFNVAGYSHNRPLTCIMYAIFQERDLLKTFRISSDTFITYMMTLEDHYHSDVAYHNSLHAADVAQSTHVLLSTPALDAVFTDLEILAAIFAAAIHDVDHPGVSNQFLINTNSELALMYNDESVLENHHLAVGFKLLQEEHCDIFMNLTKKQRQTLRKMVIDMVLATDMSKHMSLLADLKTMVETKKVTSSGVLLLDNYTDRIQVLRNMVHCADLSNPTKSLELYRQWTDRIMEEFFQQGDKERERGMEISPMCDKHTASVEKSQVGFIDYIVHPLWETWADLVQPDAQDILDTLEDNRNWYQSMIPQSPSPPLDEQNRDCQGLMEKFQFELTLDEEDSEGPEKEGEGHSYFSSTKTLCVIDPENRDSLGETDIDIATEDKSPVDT
Chain of Casein kinase I isoform gamma-1 (Homo sapiens) (Q9HCP0 whole entry, looked up, canonical isoform): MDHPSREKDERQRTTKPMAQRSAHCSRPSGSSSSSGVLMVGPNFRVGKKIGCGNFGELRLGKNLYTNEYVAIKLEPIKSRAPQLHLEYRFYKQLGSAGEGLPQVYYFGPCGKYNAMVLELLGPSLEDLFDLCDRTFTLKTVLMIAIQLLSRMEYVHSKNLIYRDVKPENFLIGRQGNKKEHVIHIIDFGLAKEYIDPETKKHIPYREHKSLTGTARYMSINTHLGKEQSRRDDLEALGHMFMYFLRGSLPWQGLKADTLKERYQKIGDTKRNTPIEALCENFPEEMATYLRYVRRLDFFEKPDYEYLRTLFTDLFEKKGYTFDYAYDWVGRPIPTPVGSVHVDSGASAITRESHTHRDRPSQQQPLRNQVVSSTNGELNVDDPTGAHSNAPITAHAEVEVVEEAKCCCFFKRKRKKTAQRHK
Chain of Mast/stem cell growth factor receptor Kit (Homo sapiens), P10721 [D820E] (P10721 whole entry D820E): as the sequence (P10721 whole entry V559D/T670I) above, with D559V, I670T, D820E counted along it
Chain of RAC-beta serine/threonine-protein kinase (Homo sapiens) (P31751 whole entry): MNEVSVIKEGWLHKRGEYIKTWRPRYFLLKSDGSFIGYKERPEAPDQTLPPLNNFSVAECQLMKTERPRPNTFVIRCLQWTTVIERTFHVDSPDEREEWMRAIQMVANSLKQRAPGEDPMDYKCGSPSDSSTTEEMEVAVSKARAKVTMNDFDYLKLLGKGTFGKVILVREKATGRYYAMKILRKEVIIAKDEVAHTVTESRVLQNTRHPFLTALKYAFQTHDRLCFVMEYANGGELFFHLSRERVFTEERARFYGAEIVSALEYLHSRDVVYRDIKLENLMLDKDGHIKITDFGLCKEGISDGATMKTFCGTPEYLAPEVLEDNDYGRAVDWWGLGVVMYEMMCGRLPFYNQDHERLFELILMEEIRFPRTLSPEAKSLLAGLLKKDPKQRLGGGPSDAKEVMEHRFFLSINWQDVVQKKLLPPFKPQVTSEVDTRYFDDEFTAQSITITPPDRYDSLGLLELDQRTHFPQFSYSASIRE
Chain of 5'-AMP-activated protein kinase catalytic subunit alpha-1 (Q13131 whole entry, looked up): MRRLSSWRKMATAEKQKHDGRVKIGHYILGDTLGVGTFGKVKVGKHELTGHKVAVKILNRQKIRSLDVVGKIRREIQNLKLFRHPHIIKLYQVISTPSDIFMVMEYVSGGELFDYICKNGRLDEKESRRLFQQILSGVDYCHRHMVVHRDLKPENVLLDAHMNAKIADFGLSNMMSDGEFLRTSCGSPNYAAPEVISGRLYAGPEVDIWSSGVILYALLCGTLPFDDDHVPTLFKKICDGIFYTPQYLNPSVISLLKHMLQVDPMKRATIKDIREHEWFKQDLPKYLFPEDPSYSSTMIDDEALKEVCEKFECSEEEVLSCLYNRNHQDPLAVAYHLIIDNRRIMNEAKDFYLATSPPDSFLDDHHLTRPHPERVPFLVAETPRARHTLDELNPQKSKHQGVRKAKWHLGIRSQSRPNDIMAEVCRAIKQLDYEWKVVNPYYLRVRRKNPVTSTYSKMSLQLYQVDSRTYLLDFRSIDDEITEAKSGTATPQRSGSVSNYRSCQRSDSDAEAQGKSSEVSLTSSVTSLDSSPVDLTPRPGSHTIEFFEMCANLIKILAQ

As to `Cn1cc(-n2cnc3c(NCc4nc5cc(Cl)c(Cl)cc5[nH]4)nc(N4CCOCC4)nc32)cn1`, the % of inhibition in [1] is 1.44%; in test [2], -6.81%; in test [3], -20.9%; in test [4], -40.5%.

Turning to `N#Cc1cccc(-c2c[nH]c3ncnc(N4CCOCC4)c23)c1`, the % of inhibition in test [5] was 7%; in [6], -9%.

The compound `Cc1cc(F)c(C(=O)Nc2cccc(-c3nncn3C(C)C)n2)cc1-n1cnc(C2CC2)c1` gave a % of control in test [7] of 87%. In test [8], `Cc1cc([C@@H](C)Nc2ccccc2C(=O)O)c2nc(N3CCOCC3)cc(=O)n2c1` [AZD-6482] came in with a % of control of 100%.

For `Cc1cnc(Nc2ccc(F)cc2Cl)nc1-c1c[nH]c(C(=O)N[C@H](CO)c2cccc(Cl)c2)c1`, the % of inhibition in test [9] amounted to 5%. On to `CC[C@@H]1[C@H](F)C(=O)N[C@@H]1COc1nccc2cc(C(N)=O)c(OC)cc12` [ZIMLOVISERTIB], for which the % of inhibition in test [10] was found to be 55.8%. In the case of `CN(C)C/C=C/C(=O)Nc1ccc(C(=O)N2CCCC(Nc3ncc(Cl)c(-c4c[nH]c5ccccc45)n3)C2)cc1` (stereo not drawn), the % of control in [11] came out at 84%; in test [12], 92%; in test [13], 94%. Take `COc1cc(C(=O)N2CC[C@@H](O)[C@@H](N)C2)cc2nc(-c3cc4ccccc4n3CC3CC3)n(C)c12`: in test [14], the pXC50 was 4.4 M. Take `Cc1ccc(-c2ccc3c(ccc4sc5c(c43)NC[C@@H](C)NC5=O)n2)cn1`: the % of inhibition is -8% in test [15] and 31% in [16]. Turning to `Nc1cnc(N2CCc3cc(S(=O)(=O)Nc4c(F)cc(Cl)cc4F)cc(N4CCCC4=O)c32)nc1` [TP-020n], the % of control in [17] was 100%. For the compound `COc1cc(N(C)c2ccnc3ccc(C(F)(F)F)cc23)cc(OC)c1OC`, the % binding in test [18] worked out at 97%.

The record behind these values is ChEMBL document CHEMBL5465560, “Selectivity Literature for EUbOPEN Chemogenomic Library” (2024).
